{
  "source": "patent US8008316B2",
  "about": "“Azonafide derived tumor and cancer targeting compounds” (The United States of America as represented by the …, priority 2006, dated 2011)",
  "system": "Gastrin receptor-expressing rat pancreatic cells (NIH line AR42J)",
  "assay": "Viable cell count of AR42J cells after about five days of exposure",
  "format": "cell-based",
  "settings": "for % Viable Cells: rat",
  "description": "The number of viable cells left in the culture after the five day period was measured, and compared to a control culture that was not exposed either compound. The number of cells remaining in each of the experimental cultures, expressed as a percentage of viable cells in the control culture, is provided in Table 4, below.",
  "data": [
    {"compound": "COc1ccc2c3c(c4ccccc4cc13)C(=O)N(CCN(C)CCN)C2=O", "note": "[MD117, 2-{2-[(2-aminoethyl)methylamino]ethyl}-6-methoxy-1,2-dihydro-3H-dibenzo[de,h]isoquinoline-1,3-dione]", "values": [
      {"measurement": "cell killing at the tested concentrations", "setting": "AR42J, 10, 50, 100 and 1000 nM, result in words", "value": "killing all cells in the culture at each of the tested concentrations"},
      {"measurement": "CC50", "setting": "Rattus norvegicus, AR-42J, 120 h, read-out: LC50 (median concentration required for death of 50% of the cell population), AR42J, about five days, calculated from the data", "value": 3, "unit": "nM"},
      {"measurement": "% Viable Cells", "setting": "0.01 µM", "value": "−100", "unit": "%"},
      {"measurement": "% Viable Cells", "setting": "0.05 µM", "value": "−100", "unit": "%"},
      {"measurement": "% Viable Cells", "setting": "0.1 µM", "value": "−100", "unit": "%"},
      {"measurement": "% Viable Cells", "setting": "1 µM", "value": "−100", "unit": "%"}
    ]}
  ]
}
